From publication PMC12267714 (Nature Communications, 2025)
Structures can show the parent of a compound that is named as a salt.

Settings: mouse, in vivo, 20 mg/kg

CN(C)C(=O)COC(=O)Cc1ccc(OC(=O)c2ccc(NC(=N)N)cc2)cc1 [camostat mesylate]
level in the plasma after oral delivery: no detectable level
